Reference: patent US10058094B2, “Antimicrobial sanitizer compositions and methods of making the same” (priority 2013, dated 2018)

Assays:
[1] = system: Salmonella typhi ATCC 6539; assay: Chlorine equivalence test; format: cell-based; parameters: key to growth of organism, Subculture Series 8 / growth of organism, Subculture Series 9 / growth of organism, Subculture Series 10 / growth of organism, Subculture Series 1 / growth of organism, Subculture Series 2 / growth of organism, Subculture Series 3 / growth of organism, Subculture Series 4 / growth of organism, Subculture Series 5 / growth of organism, Subculture Series 6 / growth of organism, Subculture Series 7: growth of organism (+); no growth of organism (0); conditions: for growth of organism, Subculture Series 1 / growth of organism, Subculture Series 2 / growth of organism, Subculture Series 3 / growth of organism, Subculture Series 4 / growth of organism, Subculture Series 5 / growth of organism, Subculture Series 6 / growth of organism, Subculture Series 7 / growth of organism, Subculture Series 8 / growth of organism, Subculture Series 9 / growth of organism, Subculture Series 10: Salmonella typhi
Description: (§1) The Table 1 sanitizer was tested to determine its efficiency at reducing bacteria on the skin via a chlorine equivalence test. Samples were prepared of Staphylococcus aureus ATCC 6538 (7.6×10^8 colony forming units per mL of text mixture) and Salmonella typhi ATCC 6539 (1.2×10^8 colony forming units per mL of text mixture). The samples were then treated against a NaOCl control at 200 ppm, 100 ppm, and 50 ppm, as well as the sanitizer disclosed herein. Thereafter, ten subculture series were taken.

[2] = system: Staphylococcus aureus ATCC 6538; assay: Chlorine equivalence test; format: cell-based; parameters: key to growth of organism, Subculture Series 8 / growth of organism, Subculture Series 9 / growth of organism, Subculture Series 10 / growth of organism, Subculture Series 1 / growth of organism, Subculture Series 2 / growth of organism, Subculture Series 3 / growth of organism, Subculture Series 4 / growth of organism, Subculture Series 5 / growth of organism, Subculture Series 6 / growth of organism, Subculture Series 7: growth of organism (+); no growth of organism (0); conditions: for growth of organism, Subculture Series 1 / growth of organism, Subculture Series 2 / growth of organism, Subculture Series 3 / growth of organism, Subculture Series 4 / growth of organism, Subculture Series 5 / growth of organism, Subculture Series 6 / growth of organism, Subculture Series 7 / growth of organism, Subculture Series 8 / growth of organism, Subculture Series 9 / growth of organism, Subculture Series 10: Staphylococcus aureus
Description: as §1

[Na+].[O-]Cl [NaOCl]
0: growth of organism, Subculture Series 1 ([1]; concentration 50 ppm) | growth of organism, Subculture Series 2 ([1]; concentration 50 ppm) | growth of organism, Subculture Series 1 ([1]; concentration 100 ppm) | growth of organism, Subculture Series 2 ([1]; concentration 100 ppm) | growth of organism, Subculture Series 3 ([1]; concentration 100 ppm) | growth of organism, Subculture Series 1 ([1]; concentration 200 ppm) | growth of organism, Subculture Series 2 ([1]; concentration 200 ppm) | growth of organism, Subculture Series 3 ([1]; concentration 200 ppm) | growth of organism, Subculture Series 4 ([1]; concentration 200 ppm) | growth of organism, Subculture Series 5 ([1]; concentration 200 ppm) | growth of organism, Subculture Series 6 ([1]; concentration 200 ppm) | growth of organism, Subculture Series 1 ([2]; concentration 50 ppm) | growth of organism, Subculture Series 1 ([2]; concentration 100 ppm) | growth of organism, Subculture Series 2 ([2]; concentration 100 ppm) | growth of organism, Subculture Series 1 ([2]; concentration 200 pm) | growth of organism, Subculture Series 3 ([2]; concentration 200 pm) | growth of organism, Subculture Series 2 ([2]; concentration 200 ppm) | growth of organism, Subculture Series 4 ([2]; concentration 200 ppm) | growth of organism, Subculture Series 5 ([2]; concentration 200 ppm)
eventually showed growth of organisms: growth of organisms over the ten subculture series ([1]; Salmonella typhi ATCC 6539, NaOCl control at 200 ppm, 100 ppm, and 50 ppm, ten subculture series) | growth of organisms over the ten subculture series ([2]; Staphylococcus aureus ATCC 6538, NaOCl control at 200 ppm, 100 ppm, and 50 ppm, ten subculture series)
+: growth of organism, Subculture Series 3 ([1]; concentration 50 ppm) | growth of organism, Subculture Series 4 ([1]; concentration 50 ppm) | growth of organism, Subculture Series 5 ([1]; concentration 50 ppm) | growth of organism, Subculture Series 6 ([1]; concentration 50 ppm) | growth of organism, Subculture Series 7 ([1]; concentration 50 ppm) | growth of organism, Subculture Series 8 ([1]; concentration 50 ppm) | growth of organism, Subculture Series 9 ([1]; concentration 50 ppm) | growth of organism, Subculture Series 10 ([1]; concentration 50 ppm) | growth of organism, Subculture Series 4 ([1]; concentration 100 ppm) | growth of organism, Subculture Series 5 ([1]; concentration 100 ppm) | growth of organism, Subculture Series 6 ([1]; concentration 100 ppm) | growth of organism, Subculture Series 7 ([1]; concentration 100 ppm) | growth of organism, Subculture Series 8 ([1]; concentration 100 ppm) | growth of organism, Subculture Series 9 ([1]; concentration 100 ppm) | growth of organism, Subculture Series 10 ([1]; concentration 100 ppm) | growth of organism, Subculture Series 7 ([1]; concentration 200 ppm) | growth of organism, Subculture Series 8 ([1]; concentration 200 ppm) | growth of organism, Subculture Series 9 ([1]; concentration 200 ppm) | growth of organism, Subculture Series 10 ([1]; concentration 200 ppm) | growth of organism, Subculture Series 2 ([2]; concentration 50 ppm) | growth of organism, Subculture Series 3 ([2]; concentration 50 ppm) | growth of organism, Subculture Series 4 ([2]; concentration 50 ppm) | growth of organism, Subculture Series 5 ([2]; concentration 50 ppm) | growth of organism, Subculture Series 6 ([2]; concentration 50 ppm) | growth of organism, Subculture Series 7 ([2]; concentration 50 ppm) | growth of organism, Subculture Series 8 ([2]; concentration 50 ppm) | growth of organism, Subculture Series 9 ([2]; concentration 50 ppm) | growth of organism, Subculture Series 10 ([2]; concentration 50 ppm) | growth of organism, Subculture Series 3 ([2]; concentration 100 ppm) | growth of organism, Subculture Series 4 ([2]; concentration 100 ppm) | growth of organism, Subculture Series 5 ([2]; concentration 100 ppm) | growth of organism, Subculture Series 6 ([2]; concentration 100 ppm) | growth of organism, Subculture Series 7 ([2]; concentration 100 ppm) | growth of organism, Subculture Series 8 ([2]; concentration 100 ppm) | growth of organism, Subculture Series 9 ([2]; concentration 100 ppm) | growth of organism, Subculture Series 10 ([2]; concentration 100 ppm) | growth of organism, Subculture Series 8 ([2]; concentration 200 pm) | growth of organism, Subculture Series 10 ([2]; concentration 200 pm) | growth of organism, Subculture Series 6 ([2]; concentration 200 ppm) | growth of organism, Subculture Series 7 ([2]; concentration 200 ppm) | growth of organism, Subculture Series 9 ([2]; concentration 200 ppm)
